# pIC50: −log10 of the molar value. Read-outs that look alike come from different tables or passages of the source.
# How the values were obtained:
# parental C6 cells = conditions: subcutaneous, nude mice; cited from earlier work
# [1] = test system: C6BAG cells co-cultured with C6VIKWT cells; test: Delayed co-culture, ganciclovir sensitivity of recipient colonies; assay type: cell-based, rat
# Protocol: Donor C6VIK or C6VIKWT cells were then added to the cultures at a ratio of 1:2 (5×10^4 recipient cells: 10^5 donor cells). Control cultures consisted of C6BAG or C6BBAG cells alone, or C6BA6 or C6BBAG cells co-plated with "donor" C6BU1 or C6BWT cells, after delay, as above. After 10 days, ganciclovir was added at varying concentrations (0-300 μM) and cells were incubated for another 9-12 days with the drug. Cells were then fixed with 0.5% glutaraldehyde and stained histochemically for beta-galactosidase activity, as described (Price et al., Proc. Natl. Acad. Sci. USA 84:1141-1145 (1987)), and colonies were counted.
# C6BAG and C6VIK cells = test: Ganciclovir treatment of combined subcutaneous tumors; assay type: in vivo, nude mice; conditions: 14 day course, 25 mg/kg twice a day intraperitoneally
# Protocol: Sequential injections of 10^5 C6BAG cells followed immediately by 10^6 C6BU1 cells, C6VIK cells, or C6VIKWT cells at the same injection site, were carried out as above using 20 animals for each combination. After the tumors had reached 1 cm in diameter, ganciclovir treatment was begun for 14 days, 25 mg/kg twice a day intraperitoneally in half of each group, with the other half receiving PBS intraperitoneally as a control. Tumor volume was assessed as the percentage increase over the volume at the beginning of treatment through 17 days.
# 9L-Z tumors = test: Tumor growth delay study; assay type: in vivo, Fischer 344 rats; conditions: 100 mg/kg single intraperitoneal injection 7 days after implantation; tumors inhibited/total, 7-8 weeks
# Protocol: (§1) Tumor Growth Delay Studies: 9L cells were grown subcutaneously (s.c.) as solid tumors in female Fischer 344 rats. Adult female Fischer 344 rats (120-150g) were inoculated at 2×10^6 cells/s.c. site; cytochrome P450 2B1-negative cells (parental 9L or 9L-Z cells) were injected in one thigh and cytochrome P450 2B1-positive cells (9L-ZP or L450-2 cells) in the other thigh. This strategy was employed to control any potential effects that subcutaneous growth of the 9L tumor might have on liver cytochrome P450-dependent cyclophosphamide activation activity. Drug treatment was initiated seven days after tumor implantation. Rats were randomized and divided into two groups. One group was treated with cyclophosphamide at 100 mg/kg body weight given as a single intraperitoneal injection. Another group was injected with saline as control. Tumor size was monitored by caliper measurement at times ranging up to 7-8 weeks, at which point the animals were sacrificed.
# 9L-ZP tumors = test: Tumor growth delay study; assay type: in vivo, Fischer 344 rats; conditions: 100 mg/kg single intraperitoneal injection 7 days after implantation; tumors inhibited/total, 7-8 weeks
# Protocol: as §1
# 9L tumors = test: Tumor growth delay study; assay type: in vivo, Fischer 344 rats; conditions: 100 mg/kg single intraperitoneal injection 7 days after implantation; tumors inhibited/total, 7-8 weeks
# Protocol: as §1
# L450-2 tumors = test: Tumor growth delay study; assay type: in vivo, Fischer 344 rats; conditions: 100 mg/kg single intraperitoneal injection 7 days after implantation; tumors inhibited/total, 7-8 weeks
# Protocol: as §1
# CNEO-1 cells = test: Cyclophosphamide dose-response assay; assay type: cell-based; conditions: Rattus norvegicus, C6 glioma; up to 1 mM CPA; read-out: cells that survived incubation
# Protocol: Two days later CPA was added to final concentrations of 0-100 μM. Five days after plating, the monolayers were rinsed twice with Hank's buffered saline (GIBCO) to remove dead cells. Monolayers were dispersed using trypsin-EDTA (GIBCO), and cell numbers were determined using a Coulter counter (Coulter Electronics Inc.).
# [2] = test system: C450-8 (C6-derived clone, cytochrome P450 2B1); test: Growth in the presence of 500 μM cyclophosphamide; conditions: 500 μM CPA, four days
# [3] = test system: parental 9L cells co-cultured with 9L-ZP cells; test: Co-culture experiments with culture inserts; assay type: cell-based, rat; conditions: 1 mM cyclophosphamide, 5 days, no cell contact
# Protocol: Co-culture Experiments: Parental 9L cells were plated in the bottom wells of culture plates (Falcon 3502), and cytochrome P450 2B1-negative or cytochrome P450 2B1-positive cells were plated into 25 mm cell culture inserts (0.45 μm pore size, Falcon 3090). Culture media were removed 18-24 hours later by aspiration. Culture medium without drug (1.0 mL) was added to the bottom well, and 1.0 mL medium containing drug was added to the upper cell culture insert. Cell numbers were determined 5 days later, as described above.
# [4] = test system: C6 cells co-cultured with C6-P450 cells across a filter; test: Secretory effect assay (insert system); assay type: cell-based; conditions: Rattus norvegicus
# Protocol: Secretory effect assay: To assess the effect of conditioned medium, cells were co-cultured in dishes using the "insert" system (Falcon). This consists of tissue culture dishes (diameter=3.5 cm), which contain a micropore membrane (pore diameter=0.45 μm) that physically separates cell populations plated into the upper and lower chambers but permits the exchange of components in the medium. C6 cells (3.4×10^5 cells) were plated into the bottom chamber, while C6-P450 (3.4×10^5 cells) or C6-Neo cells (3.4×10^5 cells) were plated into the upper chamber (on top of the filter) in a total volume of 5 mL of medium. After an overnight incubation, 0.5 mM CPA was added to this medium. Four days later, the membrane on which the C6-P450 or C6-Neo cells were growing was removed and then the number of C6 glioma cells in the lower chamber was determined by counting with a Coulter apparatus. Surviving C6 cells were then replated at a density of 2×10^5 cells per 10 cm dish without CPA. Nine days later, these cells were trypsinized and counted using the Coulter apparatus.
# [5] = test system: mixed culture of 9L and 9L-ZP cells; test: Cytotoxicity toward mixed cultures; assay type: cell-based, rat; conditions: Rattus norvegicus, 120 h; equal numbers of 9L and 9L-ZP; 1 mM cyclophosphamide, 5 days; read-out: total cell population eradicated
# Protocol: FIG. 28 is a bar graph depicting the cytotoxicity of oxazaphosphorines toward mixed cultures of 9L and 9L-ZP cells. Equal numbers of parental 9L cells were mixed with 9L-ZP cells (total initial cell number=1×10^5 /30 mm tissue culture dish). […] Cell numbers were determined 5 days after beginning drug treatment. Data (mean ±range of duplicates) are expressed as growth ratio (%) relative to drug-free controls.
# (§2) To test for drug sensitivity, 1×10^5 cells were plated in 30-mm tissue culture plates (Falcon 3046) in duplicate. Drugs were added 18-24 hours after seeding. Cells were allowed to grow for times ranging up to 5 days after drug treatment, and the final cell number was then determined. Cells were rinsed with phosphate buffered saline or Hank's buffered saline, dispersed using trypsin-EDTA (GIBCO/BRL, Inc.), and then counted with a hemocytometer. Results are expressed as a growth ratio, i.e., the number of cells in plates containing drug as a percentage of the corresponding drug-free controls (mean±range of duplicate determinations).
# [6] = test system: cytochrome P450 2B1-negative cells (parental 9L and 9L-Z); test: Drug sensitivity of cultured 9L cells; assay type: cell-based, rat; conditions: millimolar concentrations
# Protocol: as §2
Structure (SMILES),Tumor growth (parental C6 cells),"pIC50 ([1]; Rattus norvegicus, ratio 1:2, read-out: ganciclovir concentration at which 50% of cells grew)",Survival of beta-galactosidase-positive recipient colonies ([1]; ratio 1:2),Tumor volume compared to C6BAG and C6BU1 tumors (C6BAG and C6VIK cells),Complete Tumor Growth Inhibition (9L-Z tumors),Complete Tumor Growth Inhibition (9L-ZP tumors),Complete Tumor Growth Inhibition (9L tumors),Complete Tumor Growth Inhibition (L450-2 tumors),viability at 1000 µM (CNEO-1 cells),Cell destruction [2],Killing of both cell populations [3],"inhibition at 500 µM ([4]; C6, 96 h, 0.5 mM CPA, 1:1 ratio, four days, read-out: decrease in the number of C6 cells)","inhibition at 500 µM ([4]; C6, 216 h, replated without CPA, nine days, read-out: decrease in C6 cell number after trypsinization and replating)",cytotoxicity at 1000 µM [5],Effects on growth [6]
Nc1nc(O)c2ncn(COC(CO)CO)c2n1 [ganciclovir],had no effect on tumor growth,5.52,almost complete ablation of the recipient cells,significant decrease in the tumor volume,,,,,,,,,,,
O=P1(N(CCCl)CCCl)NCCCO1 (stereo not drawn) [cyclophosphamide],,,,,0/9,8/9,0/11,11/11,≥ 80%,destroyed completely,killed,~50%,~90%,~80%,no adverse effects

# From patent publication US5688773A, “Method of selectively destroying neoplastic cells” (priority 1994, dated 1997)
